Source: ChEMBL document CHEMBL1201862, “PubChem BioAssay data set” (2004)
Activity calls are given as the source filed them.

Columns and labels:
[1] = target: T1, Alkaline phosphatase, tissue-nonspecific isozyme (Homo sapiens, UniProt P05186); test: TNAP enzyme inhibition by screening hits, dose response, selectivity assay for mouse IAP inhibitor project, biochemical, human TNAP, uHTS hits (AID 488906); format: functional
T1 sequence (P05186 whole entry): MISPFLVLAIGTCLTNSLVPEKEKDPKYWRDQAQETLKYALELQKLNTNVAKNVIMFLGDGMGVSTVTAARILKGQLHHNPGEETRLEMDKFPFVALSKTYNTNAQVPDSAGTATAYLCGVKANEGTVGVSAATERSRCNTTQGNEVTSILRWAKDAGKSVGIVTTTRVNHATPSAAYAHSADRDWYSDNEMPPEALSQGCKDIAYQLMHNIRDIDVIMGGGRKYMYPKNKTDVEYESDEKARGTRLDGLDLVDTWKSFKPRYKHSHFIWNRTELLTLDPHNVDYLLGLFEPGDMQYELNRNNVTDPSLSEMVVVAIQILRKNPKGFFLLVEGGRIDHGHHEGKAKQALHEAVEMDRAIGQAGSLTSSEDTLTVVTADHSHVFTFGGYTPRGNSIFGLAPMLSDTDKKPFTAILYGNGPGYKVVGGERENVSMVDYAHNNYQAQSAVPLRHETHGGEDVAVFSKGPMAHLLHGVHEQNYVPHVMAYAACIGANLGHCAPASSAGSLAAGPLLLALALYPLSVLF

[2] = target: Intestinal-type alkaline phosphatase (Mus musculus, UniProt P24822); test: PubChem AID 488785; format: functional
Vero = test: cells; format: functional; settings: Chlorocebus sabaeus
[3] = target: Intestinal-type alkaline phosphatase (Homo sapiens, UniProt P09923); test: activation of human intestinal alkaline phosphatase – biochemical, dose response (AID 488873); format: functional
HEK293 [4] = test: NOD2 signaling inhibitors in MDP-stimulated cells, cell-based, uHTS, luminescence (AID 2001); format: functional; settings: Homo sapiens
HEK293 [5] = test: cells; format: functional, cell-based; settings: Homo sapiens
HEK293 [6] = test: inhibition of NOD1-driven NF-kB reporter – cell-based, luminescence, uHTS, primary screen (AID 1578); format: functional; settings: Homo sapiens
Streptococcus = test: GAS UMAA2166 growth inhibition – luminescence, BacTiterGlo, counter-screen for streptokinase expression inhibitor project, dose response (AID 1915); format: functional, organism-based;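 note: potency for reduction of bacterial viability or growth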
[7] = microbe, parasite or virus in culture; format: functional; settings: Mycobacterium tuberculosis
HEK293 [8] = test: cells; format: functional, cell-based; settings: Homo sapiens; remark: listed apart in the source
[9] = target: Nucleotide-binding oligomerization domain-containing protein 2 (Homo sapiens, UniProt Q9HC29); test: inhibition of NOD2-driven NF-kB reporter – cell-based, luminescence, uHTS, HEK293 (AID 1566); format: functional
HEK293 [10] = test: cells; format: functional, cell-based; settings: Homo sapiens; remark: listed apart in the source
[11] = test system: Streptococcus sp. 'group A'; test: Streptococcus pyogenes SK(-)GAS viability under kanamycin – luminescence, BacTiterGlo, confirmation, counter-screen for streptokinase expression inhibitor project, dose response (AID 1900); format: functional, organism-based
Fatty acid synthase [12] = target: T2, Fatty acid synthase (Homo sapiens, UniProt P49327); test: inhibition of human FAS-TE enzyme activity – biochemical, endpoint fluorescence intensity, uHTS hits, dose response (AID 624327); format: functional;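 note: fluorescence from hydrolysis of an O-methyl fluorescein acyl ester substrate by the enzyme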
Fatty acid synthase [13] = target: T2, Fatty acid synthase; test: inhibition of human FAS-TE enzyme activity – biochemical, kinetic fluorescence intensity, dose response (AID 624326); format: functional;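 note: rate of fluorescence rise from hydrolysis of a fluorogenic O-methyl fluorescein ester substrate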
INS1 = test: INS-1E survival protection against cytokine death – cell-based, luminescence, retest, dose response (AID 449756); format: functional; settings: Rattus norvegicus;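 note: cell death triggered by IL-1 beta plus TNF-alpha plus IFN-gamma mixture; protective hits raise ATP signal compared with cytokine alone wells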
[14] = blockers of SFLLRN-triggered platelet ATP secretion – cell-based, human platelets, luminescence, dry powder, dose response (AID 493100); format: functional
[15] = target: Luciferin 4-monooxygenase (Photinus pyralis, UniProt P08659); test: inhibition of purified Photinus pyralis luciferase – biochemical, luminescence, dose response (AID 1891)
[16] = target: T3, Polyadenylate-binding protein 1 (Homo sapiens, UniProt P11940); test: blockers of PABP interaction with poly(A) – biochemical, fluorescence polarization, […] (AID 2014)
[17] = Luminescence Cell-Based Dose Confirmation HTS to Identify Inhibitors of Platelet Dense Granule Release. [Related pubchem assays: 1663 (Primary HTS), 1678 (Summary of Project)]; format: functional
[18] = target: T4, Eukaryotic translation initiation factor 4H (Homo sapiens, UniProt Q15056); test: eIF4H binding inhibition – biochemical, uHTS, fluorescence polarization, translation initiation inhibitor project, primary screen (AID 2012)
[19] = target: T3, Polyadenylate-binding protein 1; test: PABP inhibition in translation initiation, SAR follow-up (AID 435018); format: functional
[20] = target: T4, Eukaryotic translation initiation factor 4H; test: inhibitors of translation initiation factor eIF4H – SAR follow-up (AID 435011); format: functional
Coagulation factor XII = target: T5, Coagulation factor XII (Homo sapiens, UniProt P00748); test: activated coagulation factor XII inhibitor potency, concentration-effect curve, cell-free (AID 716); format: functional
T5 sequence (P00748 whole entry): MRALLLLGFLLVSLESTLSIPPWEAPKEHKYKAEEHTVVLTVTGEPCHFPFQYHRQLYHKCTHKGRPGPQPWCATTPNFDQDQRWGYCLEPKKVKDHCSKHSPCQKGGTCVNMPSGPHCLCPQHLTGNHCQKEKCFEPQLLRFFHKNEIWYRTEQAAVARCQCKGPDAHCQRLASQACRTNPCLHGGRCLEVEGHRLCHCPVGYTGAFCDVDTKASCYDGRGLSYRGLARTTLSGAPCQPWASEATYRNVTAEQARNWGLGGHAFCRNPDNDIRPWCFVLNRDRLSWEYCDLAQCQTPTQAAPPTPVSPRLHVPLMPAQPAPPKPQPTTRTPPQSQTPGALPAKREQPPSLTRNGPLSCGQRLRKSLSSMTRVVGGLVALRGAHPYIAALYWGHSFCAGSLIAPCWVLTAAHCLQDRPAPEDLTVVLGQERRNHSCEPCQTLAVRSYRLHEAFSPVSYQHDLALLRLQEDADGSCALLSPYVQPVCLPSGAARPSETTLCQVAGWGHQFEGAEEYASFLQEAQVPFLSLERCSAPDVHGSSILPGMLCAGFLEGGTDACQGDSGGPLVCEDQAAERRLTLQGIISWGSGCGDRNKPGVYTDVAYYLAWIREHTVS

[21] = target: G2/mitotic-specific cyclin-B1 (Homo sapiens, UniProt P14635); test: HeLa cell cycle G2/M accumulation – FACS, mechanism study for Wee1 degradation inhibitor project, late-stage follow-up, panel member Cyclin B Degradation (AID 2088)
Wee1-like protein kinase = Wee1-like protein kinase (Homo sapiens, UniProt P30291); test: HeLa cell cycle G2/M accumulation – FACS, mechanism study for Wee1 degradation inhibitor project, late-stage follow-up, panel member Wee1 Degradation (AID 2088)
T-cell = test: loss of vesicle association with mouse CD8+ T cells – mouse 2C CD8+ T cells, flow cytometry, dose response (AID 485284); format: functional
Cytochrome P450 2C19 = Cytochrome P450 2C19 (Homo sapiens, UniProt P33261); test: Cytochrome panel assay with activity outcomes. Panel member name: p450-cyp2c19 Compounds with AC50 equal or less than 10 uM are considered active; format: functional; settings: read-out: AC50
[22] = target: T6, Kappa-type opioid receptor (Homo sapiens, UniProt P41145); format: functional
Beta-galactosidase = Beta-galactosidase (Escherichia coli, UniProt Q8VNN2); format: functional
[23] = viability loss in HeLa cells – cytotoxicity control for MgcRacGAP inhibitor project, dose response (AID 624300); format: functional
[24] = target: T7, Rac GTPase-activating protein 1 (Homo sapiens, UniProt Q9H0H5); test: blockers of MgcRacGAP-driven Rac1 GTP hydrolysis – biochemical, ADP Hunter fluorescence, primary and confirmatory, confirmation (AID 624330); format: functional
T7 sequence (Q9H0H5 whole entry): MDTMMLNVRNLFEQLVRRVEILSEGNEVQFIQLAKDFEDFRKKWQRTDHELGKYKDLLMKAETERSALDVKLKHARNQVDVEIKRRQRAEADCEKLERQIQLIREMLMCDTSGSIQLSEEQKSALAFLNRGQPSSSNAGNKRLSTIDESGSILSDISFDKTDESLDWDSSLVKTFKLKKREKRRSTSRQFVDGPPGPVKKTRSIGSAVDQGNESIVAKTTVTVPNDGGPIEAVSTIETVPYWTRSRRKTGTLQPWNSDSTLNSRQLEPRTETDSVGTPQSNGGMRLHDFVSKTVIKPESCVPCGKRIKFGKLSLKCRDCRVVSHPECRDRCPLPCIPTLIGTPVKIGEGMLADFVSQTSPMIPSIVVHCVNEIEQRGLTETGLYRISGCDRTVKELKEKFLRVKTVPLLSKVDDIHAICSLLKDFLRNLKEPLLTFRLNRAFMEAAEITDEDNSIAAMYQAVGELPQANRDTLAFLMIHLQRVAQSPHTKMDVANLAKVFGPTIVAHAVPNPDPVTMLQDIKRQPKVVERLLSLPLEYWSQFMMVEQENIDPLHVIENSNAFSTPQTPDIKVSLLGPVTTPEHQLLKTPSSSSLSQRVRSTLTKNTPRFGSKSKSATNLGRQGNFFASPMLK

[25] = target: T6, Kappa-type opioid receptor; format: functional; remark: listed apart in the source
HeLa = test: ATP-based viability loss in HeLa cells – cell-based, CellTiter-Glo luminescence, cherry-pick samples, cytotoxicity control for MITF activator project, dose response (AID 540259); format: functional; settings: Homo sapiens
[26] = target: T8, Voltage-gated N-type calcium channel alpha-1B subunit/Amyloid beta A4 precursor protein-binding family A member 1 (Homo sapiens, UniProt Q00975+Q02410); test: disruptors of Mint-PDZ/N-type channel peptide interaction – biochemical, HTRF, SAR follow-up (AID 2489); format: functional
[27] = target: T8, Voltage-gated N-type calcium channel alpha-1B subunit/Amyloid beta A4 precursor protein-binding family A member 1; test: disruptors of Mint-PDZ/N-type channel peptide interaction – biochemical, HTRF, set 2, SAR follow-up (AID 434980); format: functional
[28] = target: G-protein coupled receptor 55 (Homo sapiens, UniProt Q9Y2T6); test: inhibition of LPI-stimulated GPR55 beta-arrestin translocation – imaging, U2OS, beta-arrestin-GFP, LPI agonist, primary screen (AID 2013); format: functional;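 note: antagonist potency measured as reduced agonist-driven arrestin aggregation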
Bcl-2-like protein 10 = Bcl-2-like protein 10 (Homo sapiens, UniProt Q9HD36); test: Bcl-B/TR3 peptide binding disruption – biochemical, fluorescence polarization, FITC-TR3 peptide, selectivity assay for Bfl-1 inhibitor project, primary screen (AID 748);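 note: fluorescence polarization from a fluorescein-labelled TR3 peptide binding purified Bcl-B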
Chain of Bcl-2-like protein 10 (Q9HD36 whole entry): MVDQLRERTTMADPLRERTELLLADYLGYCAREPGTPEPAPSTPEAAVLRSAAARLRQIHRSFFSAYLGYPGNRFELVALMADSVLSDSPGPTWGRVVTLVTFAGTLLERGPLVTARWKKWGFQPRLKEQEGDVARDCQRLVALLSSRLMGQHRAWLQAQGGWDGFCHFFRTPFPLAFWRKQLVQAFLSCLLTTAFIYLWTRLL

T2 sequence (P49327 whole entry): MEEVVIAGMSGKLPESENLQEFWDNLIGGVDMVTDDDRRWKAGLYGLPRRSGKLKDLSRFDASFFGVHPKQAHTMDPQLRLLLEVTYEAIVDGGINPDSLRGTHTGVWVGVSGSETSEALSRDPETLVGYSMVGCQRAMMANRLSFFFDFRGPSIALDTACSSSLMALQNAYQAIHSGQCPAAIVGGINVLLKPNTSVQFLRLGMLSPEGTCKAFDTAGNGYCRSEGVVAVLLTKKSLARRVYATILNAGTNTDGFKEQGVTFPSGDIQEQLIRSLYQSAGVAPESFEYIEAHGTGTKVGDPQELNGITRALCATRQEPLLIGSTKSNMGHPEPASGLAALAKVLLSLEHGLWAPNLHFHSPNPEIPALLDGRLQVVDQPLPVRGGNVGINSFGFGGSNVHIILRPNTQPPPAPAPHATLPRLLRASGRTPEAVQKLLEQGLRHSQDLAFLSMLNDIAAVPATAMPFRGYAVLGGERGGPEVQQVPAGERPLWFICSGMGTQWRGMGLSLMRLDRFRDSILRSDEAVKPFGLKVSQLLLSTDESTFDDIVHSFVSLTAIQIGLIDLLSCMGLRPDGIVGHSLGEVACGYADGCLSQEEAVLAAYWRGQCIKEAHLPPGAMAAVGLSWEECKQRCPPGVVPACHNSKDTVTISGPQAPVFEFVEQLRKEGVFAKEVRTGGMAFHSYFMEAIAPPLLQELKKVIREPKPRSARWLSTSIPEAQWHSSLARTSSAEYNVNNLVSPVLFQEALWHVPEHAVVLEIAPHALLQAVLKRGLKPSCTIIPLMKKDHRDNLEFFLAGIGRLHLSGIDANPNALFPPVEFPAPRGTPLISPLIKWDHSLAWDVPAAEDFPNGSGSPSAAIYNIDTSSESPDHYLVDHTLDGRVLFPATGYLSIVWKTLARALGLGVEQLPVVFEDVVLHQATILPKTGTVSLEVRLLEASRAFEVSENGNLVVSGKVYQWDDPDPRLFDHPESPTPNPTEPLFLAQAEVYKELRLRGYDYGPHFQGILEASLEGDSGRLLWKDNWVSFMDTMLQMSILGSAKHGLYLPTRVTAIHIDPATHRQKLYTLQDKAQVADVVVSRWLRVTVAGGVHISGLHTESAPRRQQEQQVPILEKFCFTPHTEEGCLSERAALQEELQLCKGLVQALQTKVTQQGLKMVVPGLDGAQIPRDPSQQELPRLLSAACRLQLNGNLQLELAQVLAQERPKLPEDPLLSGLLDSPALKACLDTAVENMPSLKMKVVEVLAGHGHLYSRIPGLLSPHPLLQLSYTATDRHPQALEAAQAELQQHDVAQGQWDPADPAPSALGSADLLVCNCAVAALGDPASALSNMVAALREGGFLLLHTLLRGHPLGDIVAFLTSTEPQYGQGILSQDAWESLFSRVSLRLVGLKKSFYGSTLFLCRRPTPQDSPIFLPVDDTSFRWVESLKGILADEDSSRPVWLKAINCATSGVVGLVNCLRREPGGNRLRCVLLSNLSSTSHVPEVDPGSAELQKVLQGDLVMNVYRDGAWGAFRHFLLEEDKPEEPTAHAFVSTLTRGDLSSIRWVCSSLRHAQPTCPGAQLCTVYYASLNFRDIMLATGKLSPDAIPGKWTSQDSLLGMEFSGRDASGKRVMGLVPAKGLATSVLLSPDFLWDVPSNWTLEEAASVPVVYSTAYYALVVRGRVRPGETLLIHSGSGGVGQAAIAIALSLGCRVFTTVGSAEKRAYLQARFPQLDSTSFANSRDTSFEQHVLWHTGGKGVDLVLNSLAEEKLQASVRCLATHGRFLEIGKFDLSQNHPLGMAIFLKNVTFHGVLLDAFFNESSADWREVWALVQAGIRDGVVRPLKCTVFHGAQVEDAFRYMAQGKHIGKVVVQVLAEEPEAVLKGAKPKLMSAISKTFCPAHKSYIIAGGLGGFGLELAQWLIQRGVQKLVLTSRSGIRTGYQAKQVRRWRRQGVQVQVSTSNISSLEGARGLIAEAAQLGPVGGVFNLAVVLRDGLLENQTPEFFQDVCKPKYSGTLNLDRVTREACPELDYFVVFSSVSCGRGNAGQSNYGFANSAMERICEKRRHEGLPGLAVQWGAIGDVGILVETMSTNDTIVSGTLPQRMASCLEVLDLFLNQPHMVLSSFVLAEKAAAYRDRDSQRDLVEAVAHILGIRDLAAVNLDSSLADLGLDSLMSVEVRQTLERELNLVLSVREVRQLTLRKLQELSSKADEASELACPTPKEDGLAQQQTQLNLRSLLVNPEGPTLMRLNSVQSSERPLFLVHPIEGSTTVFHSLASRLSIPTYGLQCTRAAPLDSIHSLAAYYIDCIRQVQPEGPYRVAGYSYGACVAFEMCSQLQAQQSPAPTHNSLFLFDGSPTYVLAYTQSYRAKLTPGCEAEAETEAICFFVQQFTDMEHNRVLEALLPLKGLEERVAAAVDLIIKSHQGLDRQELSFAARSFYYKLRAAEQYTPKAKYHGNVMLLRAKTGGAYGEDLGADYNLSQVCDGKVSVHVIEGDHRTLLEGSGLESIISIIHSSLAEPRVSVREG
T3 sequence (P11940 whole entry): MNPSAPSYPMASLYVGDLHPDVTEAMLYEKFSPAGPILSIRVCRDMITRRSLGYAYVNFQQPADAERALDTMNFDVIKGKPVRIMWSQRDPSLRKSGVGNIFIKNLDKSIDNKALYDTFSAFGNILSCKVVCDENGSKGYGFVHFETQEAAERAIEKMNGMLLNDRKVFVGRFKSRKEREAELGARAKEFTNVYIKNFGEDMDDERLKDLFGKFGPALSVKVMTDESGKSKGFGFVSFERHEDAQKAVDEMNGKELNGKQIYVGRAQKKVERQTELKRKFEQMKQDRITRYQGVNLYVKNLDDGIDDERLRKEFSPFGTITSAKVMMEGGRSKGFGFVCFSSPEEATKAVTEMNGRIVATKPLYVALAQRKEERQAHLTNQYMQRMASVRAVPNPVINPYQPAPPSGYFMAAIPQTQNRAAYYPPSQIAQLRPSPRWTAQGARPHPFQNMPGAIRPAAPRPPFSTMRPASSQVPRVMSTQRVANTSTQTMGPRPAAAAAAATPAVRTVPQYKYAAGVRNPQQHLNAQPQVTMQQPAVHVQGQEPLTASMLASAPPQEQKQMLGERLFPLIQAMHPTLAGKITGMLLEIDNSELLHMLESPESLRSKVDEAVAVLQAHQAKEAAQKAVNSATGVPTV
T6 sequence (P41145 whole entry): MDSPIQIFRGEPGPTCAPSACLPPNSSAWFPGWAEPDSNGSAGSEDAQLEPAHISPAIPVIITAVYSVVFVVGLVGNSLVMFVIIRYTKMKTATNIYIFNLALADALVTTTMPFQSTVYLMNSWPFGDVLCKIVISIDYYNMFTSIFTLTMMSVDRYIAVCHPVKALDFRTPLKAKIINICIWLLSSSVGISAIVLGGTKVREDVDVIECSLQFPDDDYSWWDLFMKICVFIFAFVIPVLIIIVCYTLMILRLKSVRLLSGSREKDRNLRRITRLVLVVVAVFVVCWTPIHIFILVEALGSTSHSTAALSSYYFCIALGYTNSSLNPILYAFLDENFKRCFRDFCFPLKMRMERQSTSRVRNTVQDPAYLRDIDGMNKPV
Chain of Cytochrome P450 2C19 (P33261 whole entry): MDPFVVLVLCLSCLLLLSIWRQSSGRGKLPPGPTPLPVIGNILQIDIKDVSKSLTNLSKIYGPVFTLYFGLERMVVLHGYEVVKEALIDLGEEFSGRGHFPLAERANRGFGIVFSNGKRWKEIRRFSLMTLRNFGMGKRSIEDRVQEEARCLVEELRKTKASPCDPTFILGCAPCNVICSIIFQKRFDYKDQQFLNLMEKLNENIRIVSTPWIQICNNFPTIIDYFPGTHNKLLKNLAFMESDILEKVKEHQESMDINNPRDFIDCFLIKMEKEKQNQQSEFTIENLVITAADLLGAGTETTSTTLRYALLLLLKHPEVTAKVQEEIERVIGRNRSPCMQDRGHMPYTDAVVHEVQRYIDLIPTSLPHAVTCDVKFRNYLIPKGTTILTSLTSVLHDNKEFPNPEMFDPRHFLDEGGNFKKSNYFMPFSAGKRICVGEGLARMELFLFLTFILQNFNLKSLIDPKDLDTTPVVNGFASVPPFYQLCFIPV
Chain of G2/mitotic-specific cyclin-B1 (P14635 whole entry): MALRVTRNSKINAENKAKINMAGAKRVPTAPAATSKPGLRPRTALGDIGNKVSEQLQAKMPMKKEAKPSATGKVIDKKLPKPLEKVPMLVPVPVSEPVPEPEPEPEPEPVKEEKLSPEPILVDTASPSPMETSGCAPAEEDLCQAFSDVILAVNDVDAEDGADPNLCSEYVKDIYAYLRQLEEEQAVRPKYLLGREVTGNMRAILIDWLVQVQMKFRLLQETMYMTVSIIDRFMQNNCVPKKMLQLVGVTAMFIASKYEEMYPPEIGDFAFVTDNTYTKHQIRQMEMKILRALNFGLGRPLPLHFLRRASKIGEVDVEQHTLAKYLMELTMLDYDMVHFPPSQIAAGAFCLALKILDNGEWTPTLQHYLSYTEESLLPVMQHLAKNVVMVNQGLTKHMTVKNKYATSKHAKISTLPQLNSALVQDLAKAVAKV

## Cc1c(CN2CCC(C(=O)Nc3cccc(-c4cccc(Cl)c4)c3)CC2)cnn1C
[1]
  IC50: > 100 µM (inactive)
[2]
  IC50: 4.27 µM (active)
Vero
  CC50: 16.1 µM (active)
[3]
  EC50: 37.2 µM (active)

## CCOc1ccc(-c2csc(/C(C#N)=C\c3ccc(O)c([N+](=O)[O-])c3)n2)cc1
HEK293 [4]
  IC50: 2.58 µM (inactive)
HEK293 [5]
  IC50: 1.83 µM (active)
HEK293 [6]
  EC50: 1.52 µM (active)
Streptococcus
  EC50: 3.58 µM (active)
[7]
  CC50: 10.5 µM (active)
HEK293 [8]
  IC50: 6.63 µM (active)
[9]
  EC50: 6.23 µM (active)
HEK293 [10]
  IC50: > 20 µM (inactive)
[11]
  EC50: 2.18 µM (active)
Fatty acid synthase [12]
  IC50: 6.61 µM (active)
Fatty acid synthase [13]
  IC50: 6.74 µM (active)
INS1
  AC50: 4 µM (active)

## CCCC(=O)Nc1cccc(NC(=O)c2ccccc2Cl)c1
[14]
  AC50: 6.09 µM (active)

## CCN1CCN(S(=O)(=O)c2ccc(Cl)c(C(=O)Nc3ccc(C(=O)N(CC)CC)cc3)c2)CC1
[15]
  EC50: > 112 µM (not active)
[16]
  IC50: 15.1 µM (active)
[17]
  EC50: > 112 µM (not active)
[18]
  IC50: > 100 µM (inactive)
[19]
  IC50: 1.33 µM (active)
[20]
  IC50: > 100 µM (inactive)

## COc1ccc(N2CCN(C(=O)c3c(-c4ccccc4)noc3C)CC2)cc1
Coagulation factor XII
  IC50: > 50 µM (inactive)

## c1cc2[nH]c3c(c2c2nonc12)CCCC3
[21]
  EC50: > 49.7 µM (inactive)
Wee1-like protein kinase
  EC50: > 49.7 µM (inactive)

## COc1ccc(C(=O)C2=C(O)C(=O)N(Cc3cccnc3)C2c2ccco2)cc1OC (stereo not drawn)
T-cell
  EC50: 64 µM (inactive)
Cytochrome P450 2C19
  AC50: 0.0891 µM (inconclusive)

## COc1cc(/C=C2\SC(=S)N(Nc3ccccc3)C2=O)ccc1O
[22]
  IC50: 8.41 µM (active)
Beta-galactosidase
  EC50: 9.67 µM (active)
[23]
  CC50: 100 µM (active)
[24]
  IC50: 55.7 µM (active)
[25]
  IC50: > 32 µM
HeLa
  AC50: 41 µM (active)

## O=C(NCCc1cccnc1)c1cc(-c2ccco2)nc2ccccc12
[26]
  IC50: 29.2 µM (active)
[27]
  IC50: > 56.8 µM (inactive)

## CN(C1CCCCC1)S(=O)(=O)c1ccc(NC(=O)C2CCCCC2C(=O)O)cc1 (stereo not drawn)
[28]
  IC50: 4.72 µM (active)

## Cc1ccc2nc3sc(-c4nnc(-c5ccccc5[N+](=O)[O-])o4)c(N)c3cc2c1
Bcl-2-like protein 10
  IC50: > 100 µM (inactive)
